Results published in patent US20190142748A1 (priority 2016, published 2019).

How the values were obtained:
[1] = oral; cited from earlier work
[2] = ten patients; cited from earlier work
[3] = cited from earlier work
[4] = molecular target: plasma proteins, specifically albumin (Homo sapiens, UniProt P02768); details: in vitro; cited from earlier work
[5] = Chlorambucil stability in aqueous solution (LCMS area percent); type: physicochemical; details: chlorambucil in water (5% methanol)

Chain of plasma proteins, specifically albumin (P02768 25-609): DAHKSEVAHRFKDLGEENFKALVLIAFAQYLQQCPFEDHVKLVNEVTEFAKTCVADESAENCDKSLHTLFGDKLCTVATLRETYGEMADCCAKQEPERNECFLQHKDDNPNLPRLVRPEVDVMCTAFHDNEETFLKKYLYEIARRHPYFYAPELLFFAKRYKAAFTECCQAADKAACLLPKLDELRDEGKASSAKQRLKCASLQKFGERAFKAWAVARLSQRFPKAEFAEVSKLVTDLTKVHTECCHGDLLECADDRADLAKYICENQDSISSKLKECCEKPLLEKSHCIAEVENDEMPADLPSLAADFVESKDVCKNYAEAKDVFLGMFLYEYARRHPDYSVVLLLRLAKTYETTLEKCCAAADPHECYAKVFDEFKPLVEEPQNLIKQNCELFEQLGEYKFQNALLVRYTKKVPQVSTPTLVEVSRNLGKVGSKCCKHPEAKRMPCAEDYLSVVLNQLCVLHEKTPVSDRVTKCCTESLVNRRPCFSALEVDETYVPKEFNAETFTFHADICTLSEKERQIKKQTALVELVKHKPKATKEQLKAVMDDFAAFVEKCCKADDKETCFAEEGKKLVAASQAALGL

O=C(O)CCCc1ccc(N(CCCl)CCCl)cc1 [Chlorambucil]
absorbed from the gastrointestinal tract [1]: > 70% | increase of median Tmax by food intake [2]: 2 fold | reduction of dose-adjusted AUC by food intake [2]: 20% | reduction of dose-adjusted Cmax by food intake [2]: 55% | solubility in acetone and in alcohol ([3]; acetone, alcohol): freely soluble | solubility in water ([3]; water): practically insoluble | bound to plasma proteins [4]: 99% | Chlorambucil (Area %) ([5]; t 0 h): 98.3 Area % | Chlorambucil (Area %) ([5]; t 1 h): 85.3 Area % | Chlorambucil (Area %) ([5]; t 2 h): 74.8 Area % | Chlorambucil (Area %) ([5]; t 3 h): 64.4 Area % | Chlorambucil (Area %) ([5]; t 4 h): 58.9 Area % | Chlorambucil (Area %) ([5]; t 5 h): 53.1 Area %
